Data published in paper PMC9775191, “A Subset Screen of the Compounds Australia Scaffold Library Identifies 7-Acylaminodibenzoxazepinones as Potent and Selective Hits for Anti-Giardia Drug Discovery” (Biomedicines, 2022).

These compounds were tested on G. duodenalis BRIS/91/HEPU/1279 (assay: Primary Giardia screen at 10 µM (live-cell imaging, automated counting)). Details: 24 h.
Format: cell-based, Giardia duodenalis
Description: Each compound was assessed in singlicate, at a final concentration of 10 μM (0.4 μL of a 5 mM stock; diluted to a final volume of 200 μL in culture medium; 0.2% DMSO). […] Plates were incubated in sealed chambers filled with 3% O2, 5% CO2 in N2 and growth was assessed at 24 and 48 h using live cell imaging and automated counting as previously described. Growth inhibition was calculated by subtracting media only background counts and determining percentage growth relative to vehicle (0.2% DMSO) controls. The reliability of these assays was assessed by calculating Z’ factors for each plate as previously described.

Structure (SMILES)	Average % Inhibition 24h [%]
Cc1nnc(CN2CCN(CC(O)COCc3ccco3)CC2)n1C (stereo not drawn) [SN00772332]	0.0
CCCNC(=O)c1sc(-n2nc(C)c(Cl)c2C)nc1C [SN00786172]	7.3

Same assay, conditions: 24 h, first singlicate assay

Structure (SMILES)	% Inhibition n=1 24h [%]
Cc1nnc(CN2CCN(CC(O)COCc3ccco3)CC2)n1C (stereo not drawn) [SN00772332]	0.0
CCCNC(=O)c1sc(-n2nc(C)c(Cl)c2C)nc1C [SN00786172]	14.5

Same assay, conditions: 24 h, re-assessment

Structure (SMILES)	% Inhibition n=2 24h [%]
Cc1nnc(CN2CCN(CC(O)COCc3ccco3)CC2)n1C (stereo not drawn) [SN00772332]	0.0
CCCNC(=O)c1sc(-n2nc(C)c(Cl)c2C)nc1C [SN00786172]	0.0

Same assay, conditions: 48 h

Structure (SMILES)	Average % Inhibition 48h [%]
Cc1nnc(CN2CCN(CC(O)COCc3ccco3)CC2)n1C (stereo not drawn) [SN00772332]	28.5
CCCNC(=O)c1sc(-n2nc(C)c(Cl)c2C)nc1C [SN00786172]	27.0

Same assay, conditions: 48 h, first singlicate assay

Structure (SMILES)	% Inhibition n=1 48h [%]
CCc1cc(C2CCCN2C(=O)Cc2ccccc2F)on1 (stereo not drawn) [SN00793836]	10.7
O=C(Cc1ccccc1Cl)NCCc1noc(-c2ccccn2)n1 [SN00781138]	21.7
Cc1ccc(-c2cc(C(F)F)n3ncc(C(=O)NCc4cnn(C)c4C)c3n2)cc1 [SN00783829]	0.0
O=C1CC(C(=O)N2CCN(S(=O)(=O)c3ccc(Br)cc3)CC2)c2ccc(F)cc2N1 (stereo not drawn) [SN00779129]	0.0
CC1(C(=O)NCc2cccc(F)c2)CCCN(C(=O)Cc2cccs2)C1 (stereo not drawn) [SN00795886]	29.2
O=C(C1CC=CCC1)N1CCN(S(=O)(=O)c2c[nH]c3ncccc23)CC1 (stereo not drawn) [SN00781077]	7.5
Cc1noc2ncnc(N3CCCC(C(=O)NC4CCCCCC4)C3)c12 (stereo not drawn) [SN00788598]	0.0
O=C(c1cc(-c2cccnc2)[nH]n1)N1CCCC1 [SN00799309]	13.7
CCOC(=O)Cn1c(=O)n(-c2ccccc2)c(=O)c2cc3c(nc21)CC(C)(C)OC3 [SN00786524]	18.7
Cc1ccc(-c2[nH]c(-c3ccccc3)nc2S(=O)(=O)CC(=O)Nc2ccccc2)cc1 [SN00785272]	11.7
Cc1noc(C)c1CCNC(=O)C1CCN(c2nc3cccnc3n(C)c2=O)CC1 [SN00790058]	15.0
O=C(Nc1cccc(C(=O)N2CCC(N3CCCC3)C2)c1)c1ccco1 (stereo not drawn) [SN00783226]	0.0
CNC(=O)N1CCC(C2CCN(C(=O)c3ccncc3)CC2)C1 (stereo not drawn) [SN00801593]	4.5
COc1ccc(CNC(=O)c2cc3c(=O)n(Cc4ccccc4)ccc3s2)cc1 [SN00797837]	0.0
CC(C)c1noc(-c2cc(=O)n(CC(=O)N3CCCC3)c3ccccc23)n1 [SN00798718]	0.0
CN(C)[C@@H]1CN(C(=O)c2ccco2)CC[C@]1(O)c1ccccc1 [SN00801222]	3.1
Cc1ccc([N+](=O)[O-])cc1N1CC(=O)C(c2nc3ccccc3[nH]2)=C1N [SN00785776]	21.1
Cc1nnc(CN2CCN(CC(O)COCc3ccco3)CC2)n1C (stereo not drawn) [SN00772332]	57.1
O=C1CC(C(=O)N2CCN(c3ccccc3)CC2)CN1CCc1ccccc1 (stereo not drawn) [SN00800474]	6.2
O=C(C1CCCN1C(=O)C1CCCCC1)N1CCCC(c2nc(-c3ccc(Cl)cc3)no2)C1 (stereo not drawn) [SN00774977]	0.0
O=C(c1cccc(-c2nc(-c3ccc(F)cc3)no2)c1)N1CCN(c2ccccc2)CC1 [SN00795713]	0.9
Cn1c(=O)c2c(-c3ccccc3)c(Nc3ccccc3)oc2n(C)c1=O [SN00788641]	9.4
Cc1nc(N2CCOCC2)c2c(C(=O)N3CCCC3)c(C)oc2n1 [SN00788445]	0.0
Cc1cc(C)cc(C(=O)NCc2ccc3c(c2)nnn3C)c1 [SN00798663]	0.0
Cc1ccc(CNC(=O)c2ccc(-n3cnc(NC(=O)C(C)C)c3)cc2)cc1 [SN00796570]	29.7
CCCNC(=O)c1sc(-n2nc(C)c(Cl)c2C)nc1C [SN00786172]	52.5

Structure (SMILES)	% Inhibition n=1 48h [%]
Cc1cnc(C(=O)N2CCN(C(=O)OC(C)(C)C)C(C)C2)cn1 (stereo not drawn) [SN00774718]	0.0
Cc1ccc(-n2nc(C)c3sc(N4CCCC(C(=O)NCC5CCCO5)C4)nc32)cc1 (stereo not drawn) [SN00796250]	2.9
CCc1nnc(-c2nnc(NCc3ccc4c(c3)OCO4)c3ccccc23)o1 [SN00800558]	0.0
COc1ccc(CN2CCCN(C(=O)c3cn4ccc(C)cc4n3)CC2)cc1 [SN00771379]	0.0
CSc1ccc(NC(=O)c2cn(C)c3ncccc23)cc1 [SN00799688]	9.5
CC1CCN(CCCNC(=O)c2ccc(-c3nc(-c4ccccc4)no3)cc2)CC1 [SN00795676]	23.6
CN1CCN(Cc2nc3ccccc3c(=O)n2Cc2nc(-c3cccc([N+](=O)[O-])c3)cs2)CC1 [SN00770541]	11.4
Cc1ccc(-n2nc(C)c3sc(N4CCCN(C(=O)c5ccc6c(c5)OCO6)CC4)nc32)cc1 [SN00803168]	0.0
O=C(NCCc1ccccc1)N1CCCC1c1nc(-c2ccccc2)no1 (stereo not drawn) [SN00797440]	0.0
CCCN(C)C(=O)c1ccc(-c2ccnc(N3CCCCC3)n2)cc1 [SN00799110]	0.0
COc1ccc2c(c1)NC1(CCN(C(=O)Cc3ccc(F)cc3)CC1)c1cccn1-2 [SN00789241]	5.9
O=C(Nc1cccc(-c2noc(C3CCOCC3)n2)c1)C1CC1 [SN00772921]	0.0
CCC1c2ccsc2CCN1C(=O)c1cc(-c2csc(C)n2)c[nH]1 (stereo not drawn) [SN00778239]	3.8
COc1ccc(-c2nc3sccn3c2Nc2ccc3c(c2)OCO3)cc1 [SN00784546]	0.0
CCc1ncncc1C(=O)N1CCN(Cc2nc(C(C)C)no2)CC1 [SN00779817]	26.6
Cc1cccc(N(C)S(=O)(=O)c2cc(-c3ccno3)sc2C)c1 [SN00790813]	6.1
O=C(c1ccc2nncn2c1)N1CCc2[nH]nc(C(F)(F)F)c2C1 [SN00779777]	3.6
CNC(=O)Nc1ccc(C2(C(=O)Nc3ccc(F)c(C)c3)CCC2)cc1 [SN00795530]	0.0
CCc1noc2nc(C)nc(N3CCCC(C(=O)O)C3)c12 (stereo not drawn) [SN00785300]	0.0
c1cnc(-c2nnc(C3CCCNC3)[nH]2)cn1 (stereo not drawn) [SN00802129]	2.3
Cc1cc(N2CCN(c3ccccc3F)CC2)n2cnnc2n1 [SN00785845]	30.4
O=C(c1ccc(Cl)c(S(=O)(=O)NCC2CCCO2)c1)N1CC=C(c2ccccc2)CC1 (stereo not drawn) [SN00769948]	6.8
Cc1nc(-c2ccc3c(c2)n(CC(=O)NC2CCN(Cc4ccccc4)CC2)c(=O)n3C(C)C)no1 [SN00798376]	5.7
O=c1n(Cc2cccc(Br)c2)nc2c(S(=O)(=O)N3CCOCC3)cccn12 [SN00798020]	0.0
CC(C)(C)NC(=O)CCN1CCc2[nH]nc(C(F)(F)F)c2C1 [SN00783032]	9.6
CCN(Cc1ccccc1)C(=O)c1cc(-c2ccccc2)n[nH]1 [SN00788230]	36.1

Structure (SMILES)	% Inhibition n=1 48h [%]
CC(C)CC(=O)NCc1nc2cccnc2n1Cc1ccc(F)cc1 [SN00793251]	8.4
O=C(Cc1ccccc1[N+](=O)[O-])N1CCN(C(=O)c2ccc3c(c2)OCO3)CC1 [SN00774731]	9.4
Cc1ccc(NC(=O)c2cc3c(=O)n(CC(C)C)ccc3n2C)cc1 [SN00797828]	17.5
Cc1nc(-n2nc(C)c(Cc3ccccc3Cl)c2C)sc1C(=O)NC(C)C [SN00786185]	0.0
O=S(=O)(c1ccc(F)cc1)N1CCN=C1N1CCCCC1 [SN00790442]	15.7
COc1cccc(CNC(=O)Cn2ccc3sccc3c2=O)c1 [SN00797886]	6.6
Cc1ccc(CNC(=O)N2CCCN(c3ncccc3-c3nc(C4CC4)no3)CC2)cc1 [SN00800535]	34.3
Cc1cccc(CN2CCc3c(cc(C(=O)NC(C)(C)C)n3C)C2)c1 [SN00799594]	0.0
Cc1ccc(-c2ncc(C(=O)NC3CCCCCC3)c(C)n2)cc1 [SN00790958]	0.0
CCCNC(=O)c1cn(C)nc1S(=O)(=O)N1CCC(C)CC1 [SN00798692]	3.5
CS(=O)(=O)N1CCCc2cc(-c3csc(N)n3)ccc21 [SN00777047]	7.2
COc1ccc(CNC(=O)N2CCC(c3ccn4ncc(C(=O)N5CCOCC5)c4c3)CC2)cc1 [SN00803088]	0.7
Cc1nc2sccn2c1-c1nc(-c2ccccc2)c(C(=O)c2ccc3c(c2)NC(=O)CO3)s1 [SN00776123]	7.0
Cc1nn(C(C)C)c(C)c1S(=O)(=O)N1CCN(C(=O)c2cccs2)CC1 [SN00790783]	3.8
O=C(NCCC1=CCCCC1)c1cccn1-c1cccnc1 [SN00788993]	14.0
CCn1cc(CN2CCC(OCc3nc(C4CC4)no3)CC2)cn1 [SN00801138]	0.0
CCc1ncc2c(n1)CN(Cc1csc(-c3ncccn3)n1)CC2 [SN00807940]	9.1
CCOC(=O)c1ccsc1NC(=O)CN1CCNC(=O)CC1c1ccccc1 (stereo not drawn) [SN00772435]	0.0
OC(CN1CCCN(C2CC2)CC1)c1ccccc1C(F)(F)F (stereo not drawn) [SN00782563]	5.9
Cc1ccc(-c2nc(C)sc2CC(=O)N2CCN(Cc3nc(N)c4ccccc4n3)CC2)cc1 [SN00778718]	9.0
Cc1cc(C(=O)N2CCC(Oc3ccccc3)CC2)[nH]n1 [SN00775052]	4.5
Cc1ccc(NS(=O)(=O)c2c(C)n[nH]c2C)cc1 [SN00784820]	8.8
CNc1cccnc1OC1CCN(C(=O)CCc2nc3ccccc3[nH]2)C1 (stereo not drawn) [SN00799967]	11.3
CC(C)(C)OC(=O)N1CCN(S(=O)(=O)C2CN(C(=O)C3(CN)CCC3)C2)CC1 [SN00782268]	1.1
COc1ccc(CNS(=O)(=O)c2ccc3onc(C(=O)N4CCCCC4)c3c2)cc1OC [SN00797555]	0.0

Same assay, conditions: 48 h, re-assessment

Structure (SMILES)	% Inhibition n=2 48h [%]
Cc1nnc(CN2CCN(CC(O)COCc3ccco3)CC2)n1C (stereo not drawn) [SN00772332]	0.0
CCCNC(=O)c1sc(-n2nc(C)c(Cl)c2C)nc1C [SN00786172]	1.5
